# Test results taken from patent US11844786B2 (ADEPTIO PHARMACEUTICALS LIMITED, priority 2017, dated 2023).
# Test system: amphetamine-induced rats
# Conditions: Study 1, 2.5 mg/kg, compared to vehicle-amphetamine group
# Method: Locomotor activity of the rats was tested in open field arena.
compound,measurement,setting,value
"COc1cc2c(cc1OC)[C@@H]1C[C@H](O)[C@@H](CC(C)C)CN1CC2 [(−)-α-DHTBZ, (2S, 3S, 11bS)-3-isobutyl-9,10-dimethoxy-1,3,4,6,7,11b-hexahydro-2H-pyrido[2,1,a]isoquinolin-2-ol]",stereotypic behaviour,,did not lead to lower locomotor activity or reduced stereotypic behaviour
same,locomotor activity (distance travelled),listed as (−)-α-isomer,"very little, if any, reduction"
